In assay [1] the test system is pressor response to angiotensin II. In words: inhibition of pressor response to angiotensin II in conscious rats. It is filed as in vivo. As to conditions: Rattus norvegicus, intravenous angiotensin II 250 mg/kg [sic], read-out: IC50 (dose needed to produce 50% inhibition of the control response to angiotensin II). On the procedure: (§1) Angiotensin II antagonist activity of the compounds of Formulas (I) is assessed by in vitro and in vivo methods. In vitro antagonist activity is determined by the ability of the compounds to compete with ^125 I-angiotensin II for binding to vascular angiotensin II receptors and by their ability to antagonize the contractile response to angiotensin II in the isolated rabbit aorta. In vivo activity is evaluated by the efficacy of the compounds to inhibit the pressor response to exogenous angiotensin II in conscious rats and to lower blood pressure in a rat model of renin dependent hypertension.
Rats are prepared with indwelling femoral arterial and venous catheters and a stomach tube (Gellai et al., KidneyInt. 15:419, 1979). Two to three days following surgery the rats are placed in a restrainer and blood pressure is continuously monitored from the arterial catheter with a pressure transducer and recorded on a polygraph. The change in mean arterial pressure in response to intravenous injections of […] angiotensin II is compared at various time points prior to and following the administration of the compounds intravenously or orally at doses of 3 to 300 mg/kg. The dose of compound needed to produce 50% inhibition of the control response to angiotensin II IC50) is used to estimate the potency of the compounds.

The test system of assay [2] is conscious rats made renin dependent hypertensive by ligation of the left renal artery. In words: antihypertensive activity in conscious renin dependent hypertensive (renal artery ligated) rats. It is filed as in vivo. As to conditions: Rattus norvegicus, 7-8 days after ligation, read-out: IC30 (dose needed to reduce mean arterial pressure by 30 mm Hg). On the procedure: as §1
The antihypertensive activity of the compounds is measured by their ability to reduce mean arterial pressure in conscious rats made renin dependent hypertensive by ligation of the left renal artery (Cangiano et al., J. Pharmacol. Exp. Ther. 208:310, 1979). Renal artery ligated rats are prepared with indwelling catheters as described above. Seven to eight days following renal artery ligation, the time at which plasma renin levels are highest, the conscious rats are placed in restrainers and mean arterial pressure is continuously recorded prior to and following the administration of the compounds intravenously or orally. The dose of compound needed to reduce mean arterial pressure by 30 mm Hg (IC30) is used as an estimate of potency. […]

Read-outs that look alike come from different tables or passages of the source.

This note sets out measurements from patent publication US5248689A, “Substituted N-(imidazolyl)alkyl alanine derivatives” (SmithKline Beecham Corporation, priority 1990, dated 1993).

Take `CCCCc1ncc(CN[C@@](C)(Cc2cccs2)C(=O)O)n1Cc1ccccc1Cl` [Example 6, N-[{1-[(2-chlorophenyl)methyl]-2-n-butyl-1H-imidazol-5-yl}methyl]-α-methyl-β-(2-thienyl)alanine]: the ED50 in assay [1] (i.v.) turned out to be 11 mg/kg; in assay [1] (po, orally) it was 45 mg/kg. Besides, the ED (30 mm Hg) was determined as 15 mg/kg in assay [2] (iv) and 70 mg/kg in assay [2] (po, orally).
